From US9951035B2, “Selective matrix metalloproteinase inhibitors” (University of Notre Dame du Lac, priority 2014, dated 2018)
Where “and” joins values, the source holds several entries; their conditions need not be identical. Equal values may be shown once. Where a name gives a salt, the structure may show the parent alone.

Assays:
MMP-14 = MMP-14 (Homo sapiens (Human), UniProt P50281); experiment: Enzyme inhibition studies, MMP-14 catalytic domain; assay type: biochemical
MMP-1 = MMP-1 (Homo sapiens (Human), UniProt P03956); experiment: Enzyme inhibition studies, MMP-1 catalytic domain; assay type: biochemical
MMP-3 = MMP-3 (Homo sapiens (Human), UniProt P08254); experiment: Enzyme inhibition studies, MMP-3 catalytic domain; assay type: biochemical
MMP-7 = MMP-7 (Homo sapiens (Human), UniProt P09237); experiment: Enzyme inhibition studies, MMP-7; assay type: biochemical
ADAM9 = ADAM9 (Homo sapiens (Human), UniProt Q13443); experiment: Enzyme inhibition studies, ADAM9; assay type: biochemical; settings: at 100 μM
ADAM10 = ADAM10 (Homo sapiens (Human), UniProt O14672); experiment: Enzyme inhibition studies, ADAM10; assay type: biochemical; settings: at 100 μM
[1] = Stability in buffers of the kinetic assays; assay type: physicochemical; settings: in words
Description: Human recombinant active MMP-2 and MMP-7, and the catalytic domains of MMP-3 and MMP-14/MT1-MMP were purchased from EMD Chemicals, Inc. (San Diego, Calif., USA); human recombinant catalytic domains of MMP-1, MMP-8, and MMP-9 were purchased from Enzo Life Sciences, Inc. (Farmingdale, N.Y., USA); human recombinant active ADAM9 and ADAM10 were purchased from R&D Systems (Minneapolis, Minn., USA). Fluorogenic substrates MOCAc-Pro-Leu-Gly-Leu-A2pr(Dnp)-Ala-Arg-NH2 (for MMP-2, MMP-7, MMP-9 and MMP-14) and MOCAc-Arg-Pro-Lys-Pro-Val-Glu-Nva-Trp-Arg-Lys(Dnp)-NH2 (for MMP-3) were purchased from Peptides International (Louisville, Ky., USA); Mca-KPLGL-Dpa-AR-NH2 (for MMP-1, MMP-8 and ADAM10) and Mca-PLAQAV-Dpa-RSSSR-NH2 (for ADAM9) were purchased from R&D Systems (Minneapolis, Minn., USA). […] Inhibitor stock solutions (10 mM) were prepared fresh in DMSO before enzyme inhibition assays. We followed the same methodology for enzyme inhibition studies as reported by Page-McCaw et al. (Nat. Rev. Mol. Cell Biol. 2007, 8, 221-233). Enzyme inhibition studies were carried out using a Cary Eclipse fluorescence spectrophotometer (Varian, Walnut Creek, Calif., USA). Compounds 4, 5, 6 and 7 were stable in the buffers that were used in the kinetic assays.

[2] = Pharmacokinetics and brain distribution after single iv dose
Description: Mice (male CD-1, 6-7 weeks old, ˜30 g body weight, specific pathogen free) were purchased from Charles River Laboratories, Inc. (Wilmington, Mass., USA).
Samples were analyzed by ultraperformance liquid chromatography (UPLC)/(+)electrospray ionization (ESI)-multiple-reaction monitoring (MRM) with a reversed phase C18 column (Acclaim® RSLC 120 C18, 2.2 μm, 120 Å, 2.1×100 mm, Dionex, Sunnyvale, Calif., USA).
Quantification of the compounds in plasma and brain was obtained using peak-area ratios of the compounds to the internal standard, and the linear-regression parameters obtained from the calibration curves.

[3] = Water solubility (filtrate of saturated aqueous solution, UPLC-MRM)
MMP-9 [4] = biological target: T1, MMP-9 (Homo sapiens (Human), UniProt P14780); experiment: Enzyme inhibition studies, MMP-9 catalytic domain; assay type: biochemical; settings: read-out: MMP-9 Ki
MMP-2 = MMP-2 (Homo sapiens (Human), UniProt P08253); settings: literature / previously reported; cited from earlier work
MMP-9 [5] = biological target: T1, MMP-9; settings: literature / previously reported; cited from earlier work
[6] = 2 min after 5 mg/kg single iv, mice, HCl salt
[7] = male, CD-1, mouse, in vivo, 5 mg/kg
[8] = male, CD-1, mouse, in vivo, iv, 5 mg/kg
[9] = plasma, 5 mg/kg single iv, mice

T1 sequence (P14780 107-444): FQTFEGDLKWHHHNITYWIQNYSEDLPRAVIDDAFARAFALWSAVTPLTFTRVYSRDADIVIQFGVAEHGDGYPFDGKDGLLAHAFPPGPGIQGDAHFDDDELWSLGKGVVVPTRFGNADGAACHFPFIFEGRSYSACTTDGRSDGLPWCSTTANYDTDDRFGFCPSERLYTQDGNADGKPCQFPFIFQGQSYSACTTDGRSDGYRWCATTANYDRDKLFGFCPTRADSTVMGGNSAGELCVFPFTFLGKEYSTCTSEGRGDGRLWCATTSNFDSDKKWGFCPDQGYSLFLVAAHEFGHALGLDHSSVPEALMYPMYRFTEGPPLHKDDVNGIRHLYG
MMP-2, sequence (P08253 110-660): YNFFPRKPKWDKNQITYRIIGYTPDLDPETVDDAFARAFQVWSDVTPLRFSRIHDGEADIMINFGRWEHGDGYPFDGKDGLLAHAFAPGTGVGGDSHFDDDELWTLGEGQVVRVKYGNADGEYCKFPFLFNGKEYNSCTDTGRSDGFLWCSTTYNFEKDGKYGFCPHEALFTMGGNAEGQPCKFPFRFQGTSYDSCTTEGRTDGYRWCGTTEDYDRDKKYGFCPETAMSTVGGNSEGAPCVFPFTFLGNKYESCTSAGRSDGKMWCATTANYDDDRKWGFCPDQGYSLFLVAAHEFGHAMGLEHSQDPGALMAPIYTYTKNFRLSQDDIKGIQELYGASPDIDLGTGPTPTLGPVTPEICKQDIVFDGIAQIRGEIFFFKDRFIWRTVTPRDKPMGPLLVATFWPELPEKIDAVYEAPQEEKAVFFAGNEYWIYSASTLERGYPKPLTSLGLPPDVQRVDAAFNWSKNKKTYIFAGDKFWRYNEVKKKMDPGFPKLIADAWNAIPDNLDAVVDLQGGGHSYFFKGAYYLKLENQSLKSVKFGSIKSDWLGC
ADAM9, sequence (Q13443 206-697): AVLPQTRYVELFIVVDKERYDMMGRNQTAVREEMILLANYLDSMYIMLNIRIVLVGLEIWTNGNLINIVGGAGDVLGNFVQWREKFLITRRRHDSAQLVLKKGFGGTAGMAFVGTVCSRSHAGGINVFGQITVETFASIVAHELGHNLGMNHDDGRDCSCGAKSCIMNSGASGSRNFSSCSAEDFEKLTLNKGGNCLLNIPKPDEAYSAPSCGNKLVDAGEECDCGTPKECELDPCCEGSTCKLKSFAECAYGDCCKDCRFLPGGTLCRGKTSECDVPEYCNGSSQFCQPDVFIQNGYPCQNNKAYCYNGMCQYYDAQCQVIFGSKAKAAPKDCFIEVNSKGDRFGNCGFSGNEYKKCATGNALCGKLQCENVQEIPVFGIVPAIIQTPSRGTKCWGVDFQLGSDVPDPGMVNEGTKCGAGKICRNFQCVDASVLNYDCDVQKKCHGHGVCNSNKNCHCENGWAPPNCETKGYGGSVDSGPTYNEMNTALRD
MMP-7, sequence (P09237 95-267): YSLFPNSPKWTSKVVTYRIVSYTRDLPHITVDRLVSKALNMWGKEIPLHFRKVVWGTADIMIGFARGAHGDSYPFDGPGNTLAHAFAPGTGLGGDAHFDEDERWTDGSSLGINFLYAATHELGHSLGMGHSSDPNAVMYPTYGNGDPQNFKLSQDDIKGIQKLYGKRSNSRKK
MMP-3, sequence (P08254 100-272): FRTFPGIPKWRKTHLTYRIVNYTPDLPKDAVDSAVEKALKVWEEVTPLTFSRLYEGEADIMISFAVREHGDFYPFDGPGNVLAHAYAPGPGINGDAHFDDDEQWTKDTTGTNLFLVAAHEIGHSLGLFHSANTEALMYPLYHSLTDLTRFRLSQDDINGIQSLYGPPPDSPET
MMP-1, sequence (P03956 98-276): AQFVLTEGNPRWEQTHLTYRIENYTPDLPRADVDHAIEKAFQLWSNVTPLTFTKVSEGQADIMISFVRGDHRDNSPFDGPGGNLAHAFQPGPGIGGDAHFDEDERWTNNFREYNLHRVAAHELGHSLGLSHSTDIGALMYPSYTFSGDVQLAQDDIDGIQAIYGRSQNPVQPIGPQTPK
ADAM10, sequence (O14672 214-672): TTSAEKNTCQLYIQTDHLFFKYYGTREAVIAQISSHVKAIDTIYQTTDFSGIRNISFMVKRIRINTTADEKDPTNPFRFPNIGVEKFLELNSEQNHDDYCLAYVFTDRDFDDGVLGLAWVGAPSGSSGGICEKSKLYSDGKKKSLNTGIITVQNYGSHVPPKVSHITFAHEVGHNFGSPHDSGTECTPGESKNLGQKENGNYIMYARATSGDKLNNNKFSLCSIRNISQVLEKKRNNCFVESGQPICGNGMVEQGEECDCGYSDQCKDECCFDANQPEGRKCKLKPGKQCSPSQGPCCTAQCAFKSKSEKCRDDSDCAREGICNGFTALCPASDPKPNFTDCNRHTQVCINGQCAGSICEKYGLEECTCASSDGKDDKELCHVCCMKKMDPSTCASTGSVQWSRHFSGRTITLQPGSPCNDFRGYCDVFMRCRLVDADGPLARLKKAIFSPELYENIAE

N=C(N)Nc1ccc(Oc2ccc(S(=O)(=O)CC3CS3)cc2)cc1 (stereo not shown) [Compound 7, 1-(4-(4-((Thiiran-2-ylmethyl)sulfonyl)phenoxy)phenyl)guanidine HCl salt]
Ki (MMP-14): 40 ± 2 nM
inhibition at 100 µM (MMP-1): 4%
Ki (MMP-3): 19000 ± 1000 nM
inhibition at 100 µM (MMP-7): 4%
inhibition at 100 µM (ADAM9): 14%
inhibition at 100 µM (ADAM10): 25%
stability in the buffers used in the kinetic assays [1]: stable
time brain levels above Ki for MMP-2 ([2]; 5 mg/kg single iv, mice): 120 min
time brain levels above Ki for MMP-9 ([2]; 5 mg/kg single iv, mice): 30 min
time plasma levels above Ki for MMP-2 ([2]; 5 mg/kg single iv, mice): 90 min
time plasma levels above Ki for MMP-9 ([2]; 5 mg/kg single iv, mice): 60 min
Brain concentration [2, 6]: 0.577±0.560 pmol/mg tissue
Plasma concentration [2, 6]: 12600 ± 10900 nM
Brain concentration ([2]; 5 min after 5 mg/kg single iv, mice): 0.476 ± 0.470 pmol/mg tissue
Brain concentration ([2]; 10 min after 5 mg/kg single iv, mice): 0.216 ± 0.071 pmol/mg tissue
Brain concentration ([2]; 30 min after 5 mg/kg single iv, mice): 0.117 ± 0.024 pmol/mg tissue
Brain concentration ([2]; 60 min after 5 mg/kg single iv, mice): 0.0228 ± 0.0033 pmol/mg tissue
Brain concentration ([2]; 90 min after 5 mg/kg single iv, mice): 0.0409 ± 0.0155 pmol/mg tissue
Brain concentration ([2]; 120 min after 5 mg/kg single iv, mice): 0.0222 ± 0.0072 pmol/mg tissue
Brain concentration ([2]; 240 min after 5 mg/kg single iv, mice): 0.0161 ± 0.0035 pmol/mg tissue
AUC0-last ([2]; brain, 5 mg/kg single iv, mice): 14.3 pmol·min/mg
AUC0-∞ ([2]; brain, 5 mg/kg single iv, mice): 17.4 pmol·min/mg
t1/2α ([2]; brain, 5 mg/kg single iv, mice): 47 min
t1/2β ([2]; brain, 5 mg/kg single iv, mice): 133 min
crossing of the blood-brain barrier ([2]; in words): cross the blood-brain barrier
concentration at 2 min [2, 7]: 12600 ± 10900 nM
concentration at 5 min [2, 7]: 4370 ± 2630 nM
concentration at 10 min [2, 7]: 3920 ± 780 nM
concentration at 30 min [2, 7]: 482 ± 229 nM
concentration at 60 min [2, 7]: 119 ± 51 nM
concentration at 90 min [2, 7]: 22 ± 8 nM
concentration at 120 min [2, 7]: 6.3 ± 4.9 nM
concentration at 240 min [2, 7]: 3.2 ± 2.66 nM
AUC(0-inf) [2, 8]: 2.13 µM·h
AUC(0-t) [2, 8]: 2.13 µM·h
Kp [2, 8]: 0.136
Vd [2, 8]: 1.08 L/kg
clearance [2, 8]: 107 mL/min/kg
CL [2, 9]: 107 mL/min/kg
t1/2α [2, 9]: 5.22 min
t1/2β [2, 9]: 64.2 min
Aq. solubility [3]: 32 mg/mL
solubility ([3]; thermodynamic from solid): 32 mg/mL

COC(=O)Nc1ccc(Oc2ccc(S(=O)(=O)CC3CS3)cc2)cc1 (stereo not shown) [ND-380]
Ki (MMP-9 [4]): 180 ± 30 nM

TIMP-1: tissue inhibitor of metalloproteinase 1, protein inhibitor of MMPs
residence time bound to MMP-2 (MMP-2): 7 min and 6.9 min
residence time bound to MMP-9 (MMP-9 [5]): 8 min
